Experimental data: the kinase profiling compilation of Christmann-Franck et al. (2016)

Key:
Experiment in all cases: KINOMEscan competition binding
Conditions in all cases: compound 10.0 µM
MAPK13 (human) = MAPK13 (human) (UniProt O15264)
MAP2K1 (human) = MAP2K1 (human) (UniProt Q02750)
CDK11B (human) = CDK11B (human) (UniProt P21127)
DAPK1 (human) = DAPK1 (human) (UniProt P53355)
CSNK1D (human) = CSNK1D (human) (UniProt P48730)
CAMK2G (human) = CAMK2G (human) (UniProt Q13555)
CHEK1 (human) = CHEK1 (human) (UniProt O14757)
FLT4 (human) = FLT4 (human) (UniProt P35916)
CDK19 (human) = CDK19 (human) (UniProt Q9BWU1)
[1] = system: ABL1 (human), P00519 [M351T]
MERTK (human) = MERTK (human) (UniProt Q12866)
MERTK (human), sequence (Q12866 whole entry, looked up): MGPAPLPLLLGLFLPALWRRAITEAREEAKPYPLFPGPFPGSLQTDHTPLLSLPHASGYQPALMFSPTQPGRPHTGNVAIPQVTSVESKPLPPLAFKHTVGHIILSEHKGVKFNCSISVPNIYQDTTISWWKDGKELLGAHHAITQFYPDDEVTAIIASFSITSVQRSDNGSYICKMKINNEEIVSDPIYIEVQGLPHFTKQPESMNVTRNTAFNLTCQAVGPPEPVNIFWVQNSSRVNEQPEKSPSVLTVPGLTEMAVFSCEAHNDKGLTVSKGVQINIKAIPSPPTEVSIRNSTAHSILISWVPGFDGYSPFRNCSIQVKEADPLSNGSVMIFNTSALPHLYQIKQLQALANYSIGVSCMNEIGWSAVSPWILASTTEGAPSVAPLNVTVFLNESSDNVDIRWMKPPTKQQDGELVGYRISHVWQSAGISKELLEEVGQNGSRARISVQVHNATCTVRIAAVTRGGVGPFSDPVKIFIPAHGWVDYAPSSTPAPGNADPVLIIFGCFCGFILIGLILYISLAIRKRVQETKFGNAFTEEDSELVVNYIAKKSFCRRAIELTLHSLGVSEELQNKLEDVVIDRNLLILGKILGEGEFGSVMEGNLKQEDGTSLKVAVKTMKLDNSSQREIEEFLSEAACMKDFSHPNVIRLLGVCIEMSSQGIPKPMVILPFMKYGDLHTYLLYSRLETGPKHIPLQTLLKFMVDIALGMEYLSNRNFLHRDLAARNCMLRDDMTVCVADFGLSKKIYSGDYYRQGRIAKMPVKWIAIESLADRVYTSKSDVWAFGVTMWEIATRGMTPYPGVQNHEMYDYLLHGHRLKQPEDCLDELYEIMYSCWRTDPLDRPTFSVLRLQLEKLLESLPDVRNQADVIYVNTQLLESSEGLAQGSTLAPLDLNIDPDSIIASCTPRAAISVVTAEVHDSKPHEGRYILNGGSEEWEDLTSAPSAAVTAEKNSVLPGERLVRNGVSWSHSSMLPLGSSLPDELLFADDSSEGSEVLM

EPHA5 (human) = EPHA5 (human) (UniProt P54756)
TEC (human) = TEC (human) (UniProt P42680)
AAK1 (human) = AAK1 (human) (UniProt Q2M2I8)
ITK (human) = ITK (human) (UniProt Q08881)
NEK1 (human) = NEK1 (human) (UniProt Q96PY6)
HCK (human) = HCK (human) (UniProt P08631)
HCK (human), sequence (P08631 whole entry, looked up): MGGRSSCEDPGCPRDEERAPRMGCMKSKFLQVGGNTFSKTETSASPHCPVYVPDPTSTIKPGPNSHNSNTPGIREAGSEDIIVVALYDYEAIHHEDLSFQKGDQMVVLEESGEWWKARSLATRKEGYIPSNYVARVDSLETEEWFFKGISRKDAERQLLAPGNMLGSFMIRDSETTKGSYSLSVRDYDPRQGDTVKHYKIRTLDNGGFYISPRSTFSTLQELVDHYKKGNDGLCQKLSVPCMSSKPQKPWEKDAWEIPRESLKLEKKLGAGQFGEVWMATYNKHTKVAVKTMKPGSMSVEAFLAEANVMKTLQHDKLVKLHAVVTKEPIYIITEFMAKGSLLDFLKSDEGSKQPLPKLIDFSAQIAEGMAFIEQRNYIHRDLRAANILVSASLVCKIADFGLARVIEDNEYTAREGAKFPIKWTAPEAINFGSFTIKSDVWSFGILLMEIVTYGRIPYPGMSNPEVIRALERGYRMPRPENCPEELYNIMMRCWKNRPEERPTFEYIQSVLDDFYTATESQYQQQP

PRKD3 (human) = PRKD3 (human) (UniProt O94806)
EIF2AK2 (human) = EIF2AK2 (human) (UniProt P19525)
BMPR2 (human) = BMPR2 (human) (UniProt Q13873)
ACVR1B (human) = ACVR1B (human) (UniProt P36896)
MUSK (human) = MUSK (human) (UniProt O15146)
DCLK3 (human) = DCLK3 (human) (UniProt Q9C098)
ADCK4 (human) = ADCK4 (human) (UniProt Q96D53)
BMPR1B (human) = BMPR1B (human) (UniProt O00238)
MINK1 (human) = MINK1 (human) (UniProt Q8N4C8)
MAPK10 (human) = MAPK10 (human) (UniProt P53779)
FLT3 (human) = FLT3 (human) (UniProt P36888)
YES1 (human) = YES1 (human) (UniProt P07947)
STK3 (human) = STK3 (human) (UniProt Q13188)
STK3 (human), sequence (Q13188 whole entry, looked up): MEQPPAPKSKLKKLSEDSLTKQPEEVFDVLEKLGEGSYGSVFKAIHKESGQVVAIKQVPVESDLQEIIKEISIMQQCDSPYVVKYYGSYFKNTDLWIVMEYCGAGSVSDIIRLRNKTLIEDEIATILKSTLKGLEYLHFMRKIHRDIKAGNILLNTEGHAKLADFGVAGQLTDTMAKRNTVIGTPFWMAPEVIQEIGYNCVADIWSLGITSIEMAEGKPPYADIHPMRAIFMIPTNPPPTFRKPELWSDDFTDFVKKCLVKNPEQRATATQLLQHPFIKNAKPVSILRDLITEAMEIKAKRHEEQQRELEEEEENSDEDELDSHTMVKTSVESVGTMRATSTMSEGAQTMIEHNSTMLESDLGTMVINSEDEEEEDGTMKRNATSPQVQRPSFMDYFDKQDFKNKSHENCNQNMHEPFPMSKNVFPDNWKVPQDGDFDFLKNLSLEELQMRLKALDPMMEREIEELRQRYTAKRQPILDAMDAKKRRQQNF

SIK1 (human) = SIK1 (human) (UniProt P57059)
MAP2K3 (human) = MAP2K3 (human) (UniProt P46734)
MAP2K3 (human), sequence (P46734 whole entry, looked up): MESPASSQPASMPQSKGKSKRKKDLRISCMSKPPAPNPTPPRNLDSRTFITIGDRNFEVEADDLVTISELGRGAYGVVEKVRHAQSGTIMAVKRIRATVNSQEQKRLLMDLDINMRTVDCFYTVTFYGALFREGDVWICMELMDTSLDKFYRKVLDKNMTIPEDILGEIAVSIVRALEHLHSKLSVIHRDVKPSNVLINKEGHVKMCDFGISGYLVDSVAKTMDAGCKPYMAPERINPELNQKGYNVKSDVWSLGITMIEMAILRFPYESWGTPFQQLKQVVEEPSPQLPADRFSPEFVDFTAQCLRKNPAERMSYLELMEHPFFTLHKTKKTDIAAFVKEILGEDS

AKT3 (human) = AKT3 (human) (UniProt Q9Y243)
RIPK1 (human) = RIPK1 (human) (UniProt Q13546)
EPHA2 (human) = EPHA2 (human) (UniProt P29317)
STK32C (human) = STK32C (human) (UniProt Q86UX6)
EPHA1 (human) = EPHA1 (human) (UniProt P21709)
EPHA1 (human), sequence (P21709 whole entry, looked up): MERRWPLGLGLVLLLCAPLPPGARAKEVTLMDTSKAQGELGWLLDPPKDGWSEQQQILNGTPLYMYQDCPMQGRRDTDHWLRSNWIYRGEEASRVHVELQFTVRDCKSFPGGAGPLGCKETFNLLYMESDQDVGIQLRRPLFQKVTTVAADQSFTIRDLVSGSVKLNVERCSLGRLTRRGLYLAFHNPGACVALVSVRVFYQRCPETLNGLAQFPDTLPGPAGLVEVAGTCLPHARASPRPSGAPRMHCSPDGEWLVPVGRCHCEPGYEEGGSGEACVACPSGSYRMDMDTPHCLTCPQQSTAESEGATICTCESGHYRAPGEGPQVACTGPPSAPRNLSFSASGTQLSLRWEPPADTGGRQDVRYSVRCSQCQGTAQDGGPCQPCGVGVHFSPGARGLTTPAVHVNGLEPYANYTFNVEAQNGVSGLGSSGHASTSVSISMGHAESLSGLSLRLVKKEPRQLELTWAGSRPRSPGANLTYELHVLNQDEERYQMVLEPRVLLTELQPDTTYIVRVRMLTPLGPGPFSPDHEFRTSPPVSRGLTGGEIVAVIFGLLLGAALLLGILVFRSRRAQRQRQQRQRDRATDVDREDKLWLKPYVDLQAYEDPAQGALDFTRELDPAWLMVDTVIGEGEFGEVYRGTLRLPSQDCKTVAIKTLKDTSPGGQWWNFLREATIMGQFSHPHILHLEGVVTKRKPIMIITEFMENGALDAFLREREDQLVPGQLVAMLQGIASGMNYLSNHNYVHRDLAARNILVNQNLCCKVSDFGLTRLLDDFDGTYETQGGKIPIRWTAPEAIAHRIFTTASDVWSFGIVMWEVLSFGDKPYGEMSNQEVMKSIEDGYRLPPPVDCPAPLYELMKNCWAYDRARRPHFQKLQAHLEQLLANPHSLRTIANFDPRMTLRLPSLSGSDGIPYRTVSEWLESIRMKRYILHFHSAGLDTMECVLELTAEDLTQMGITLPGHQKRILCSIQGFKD

SRC (human) = SRC (human) (UniProt P12931)
PRKAA2 (human) = PRKAA2 (human) (UniProt P54646)
PHKG2 (human) = PHKG2 (human) (UniProt P15735)
PHKG2 (human), sequence (P15735 whole entry, looked up): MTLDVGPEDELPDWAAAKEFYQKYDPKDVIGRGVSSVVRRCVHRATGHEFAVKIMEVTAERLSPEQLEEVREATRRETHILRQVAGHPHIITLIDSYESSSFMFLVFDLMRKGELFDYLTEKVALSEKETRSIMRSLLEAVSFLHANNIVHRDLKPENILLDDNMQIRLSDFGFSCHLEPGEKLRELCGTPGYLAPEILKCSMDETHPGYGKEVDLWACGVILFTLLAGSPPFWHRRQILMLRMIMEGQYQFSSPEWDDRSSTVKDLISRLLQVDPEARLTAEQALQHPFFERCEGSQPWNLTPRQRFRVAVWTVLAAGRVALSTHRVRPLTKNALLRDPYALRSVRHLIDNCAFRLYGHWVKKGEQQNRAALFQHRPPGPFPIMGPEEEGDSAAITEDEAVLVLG

MAPK13 (human), sequence (O15264 whole entry, looked up): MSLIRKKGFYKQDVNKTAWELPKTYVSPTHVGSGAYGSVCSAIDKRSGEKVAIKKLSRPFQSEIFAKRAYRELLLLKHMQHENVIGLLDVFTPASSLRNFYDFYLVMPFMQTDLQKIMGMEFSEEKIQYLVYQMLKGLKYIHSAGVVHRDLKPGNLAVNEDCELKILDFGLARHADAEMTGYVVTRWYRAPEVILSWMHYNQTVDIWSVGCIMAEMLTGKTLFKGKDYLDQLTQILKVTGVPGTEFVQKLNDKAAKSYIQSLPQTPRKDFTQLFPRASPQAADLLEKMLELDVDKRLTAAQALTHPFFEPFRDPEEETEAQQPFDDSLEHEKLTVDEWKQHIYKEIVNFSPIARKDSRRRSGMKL
CDK11B (human), sequence (P21127 whole entry, looked up): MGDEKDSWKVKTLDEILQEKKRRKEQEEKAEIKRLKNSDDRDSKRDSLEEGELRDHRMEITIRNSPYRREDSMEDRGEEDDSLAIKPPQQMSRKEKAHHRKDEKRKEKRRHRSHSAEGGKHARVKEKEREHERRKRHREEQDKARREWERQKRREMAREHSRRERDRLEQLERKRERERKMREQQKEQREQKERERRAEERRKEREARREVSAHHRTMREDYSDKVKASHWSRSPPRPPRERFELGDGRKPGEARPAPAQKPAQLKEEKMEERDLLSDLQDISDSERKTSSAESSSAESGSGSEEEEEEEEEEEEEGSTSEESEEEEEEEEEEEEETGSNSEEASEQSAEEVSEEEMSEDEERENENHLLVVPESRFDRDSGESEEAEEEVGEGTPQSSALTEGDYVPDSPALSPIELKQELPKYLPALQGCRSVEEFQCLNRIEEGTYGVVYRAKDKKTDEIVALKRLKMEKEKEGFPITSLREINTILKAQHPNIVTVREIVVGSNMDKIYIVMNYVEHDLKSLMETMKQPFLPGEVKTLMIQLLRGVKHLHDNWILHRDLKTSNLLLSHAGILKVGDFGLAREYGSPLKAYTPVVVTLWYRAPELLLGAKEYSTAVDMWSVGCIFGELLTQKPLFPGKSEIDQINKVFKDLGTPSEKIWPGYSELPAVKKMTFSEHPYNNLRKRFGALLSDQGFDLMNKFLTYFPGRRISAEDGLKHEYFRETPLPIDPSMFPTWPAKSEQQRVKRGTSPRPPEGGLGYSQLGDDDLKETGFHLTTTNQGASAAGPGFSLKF

Row | SMILES | kinase still bound, per cent of control (MAPK13 (human)) | kinase still bound, per cent of control (MAP2K1 (human)) | kinase still bound, per cent of control (CDK11B (human)) | kinase still bound, per cent of control (DAPK1 (human)) | kinase still bound, per cent of control (CSNK1D (human)) | kinase still bound, per cent of control (CAMK2G (human)) | kinase still bound, per cent of control (CHEK1 (human)) | kinase still bound, per cent of control (FLT4 (human)) | kinase still bound, per cent of control (CDK19 (human)) | kinase still bound, per cent of control [1] | kinase still bound, per cent of control (MERTK (human)) | kinase still bound, per cent of control (EPHA5 (human)) | kinase still bound, per cent of control (TEC (human)) | kinase still bound, per cent of control (AAK1 (human)) | kinase still bound, per cent of control (ITK (human)) | kinase still bound, per cent of control (NEK1 (human)) | kinase still bound, per cent of control (HCK (human)) | kinase still bound, per cent of control (PRKD3 (human)) | kinase still bound, per cent of control (EIF2AK2 (human)) | kinase still bound, per cent of control (BMPR2 (human)) | further results
1 | C=CC(=O)Nc1cc(NC(=O)c2ccc(C)c(NC(=O)c3ccno3)c2)cc(C(F)(F)F)c1 | 90% | 87% | 86% | 80% | 100% | 89% | 96% | 100% | 96% | 51% | 99% | 80% | 100% | 77% | 93% | 100% | 60% | 100% | 100% | 100% | kinase still bound, per cent of control (ACVR1B (human)): 100%; kinase still bound, per cent of control (MUSK (human)): 100%; kinase still bound, per cent of control (DCLK3 (human)): 100%; kinase still bound, per cent of control (ADCK4 (human)): 97%; kinase still bound, per cent of control (BMPR1B (human)): 100%; kinase still bound, per cent of control (MINK1 (human)): 84%; kinase still bound, per cent of control (MAPK10 (human)): 86%; kinase still bound, per cent of control (FLT3 (human)): 100%; kinase still bound, per cent of control (YES1 (human)): 46%; kinase still bound, per cent of control (STK3 (human)): 100%; kinase still bound, per cent of control (SIK1 (human)): 97%; kinase still bound, per cent of control (MAP2K3 (human)): 100%; kinase still bound, per cent of control (AKT3 (human)): 100%; kinase still bound, per cent of control (RIPK1 (human)): 100%; kinase still bound, per cent of control (EPHA2 (human)): 28%; kinase still bound, per cent of control (STK32C (human)): 100%; kinase still bound, per cent of control (EPHA1 (human)): 99%; kinase still bound, per cent of control (SRC (human)): 49%; kinase still bound, per cent of control (PRKAA2 (human)): 100%; kinase still bound, per cent of control (PHKG2 (human)): 95%
2 | CN(C)C/C=C/C(=O)Nc1cccc(Nc2ncc3c(n2)N(C)c2ccccc2C(=O)N3C)c1 | 61% | 82% | 100% | 52% | 52% | 46% | 8.5% | 100% | 100% | 0.75% | 46% | 99% | 97% | 20% | 58% | 69% | 13% | 19% | 75% | 71% | kinase still bound, per cent of control (ACVR1B (human)): 53%; kinase still bound, per cent of control (MUSK (human)): 100%; kinase still bound, per cent of control (DCLK3 (human)): 0.5%; kinase still bound, per cent of control (ADCK4 (human)): 100%; kinase still bound, per cent of control (BMPR1B (human)): 84%; kinase still bound, per cent of control (MINK1 (human)): 29%; kinase still bound, per cent of control (MAPK10 (human)): 80%; kinase still bound, per cent of control (FLT3 (human)): 73%; kinase still bound, per cent of control (YES1 (human)): 13%; kinase still bound, per cent of control (STK3 (human)): 0%; kinase still bound, per cent of control (SIK1 (human)): 2.7%; kinase still bound, per cent of control (MAP2K3 (human)): 100%; kinase still bound, per cent of control (AKT3 (human)): 100%; kinase still bound, per cent of control (RIPK1 (human)): 28%; kinase still bound, per cent of control (EPHA2 (human)): 82%; kinase still bound, per cent of control (STK32C (human)): 93%; kinase still bound, per cent of control (EPHA1 (human)): 55%; kinase still bound, per cent of control (SRC (human)): 0.7%; kinase still bound, per cent of control (PRKAA2 (human)): 1.4%; kinase still bound, per cent of control (PHKG2 (human)): 25%
